{
  "source": "patent US7271239B2",
  "about": "“D-isomers of antimicrobial peptide” (The Research Foundation of State University of New York, priority 2004, dated 2007)",
  "key": {"Candida strains": {"test_system": "Candida strains", "assay_type": "cell-based", "excerpt": "(§1) Killing assays in saliva. […] Saliva without peptides was a blank control.\n(§2) Activity of peptides in saliva against different candida strains. The in vitro candidacidal activities of MUC7 12-mer-L and D, Hsn5 12-mer, and Magainin-II against four Candida strains in clarified saliva are shown in Table 1. The data are presented as percent loss of cell viability compared to non-treated control. The following observations were made. […] In the presence of PIC, the activity values of MUC7 12-mer-L and of Magainin-II rose close to a 100% for all strains, but not that of Hsn5 peptide, which achieved the similar activity only against the C. albicans (ATCC strain). The activities against the other strains were much lower, in particular against both strains of C. glabrata (30-40%). […] This was true especially in saliva without PIC."}, "S. mutans GS-5": {"test_system": "S. mutans GS-5", "assay": "Time-kill assay", "assay_type": "cell-based, Streptococcus mutans", "settings": "after 4 h incubation, each agent at its MIC", "method": "FIG. 10. Time-Killing curves for S. mutans. […] Control (▪), MUC7 12-mer-L (Δ), MUC7 12-mer-D (□), MUC7 20-mer (▴), Hsn5 12-mer (×), magainin II (●), chlorhexidine (◯).\nFor the peptides MUC7 12-mer-L, MUC7 12-mer-D, and MUC7 20-mer, time-kill kinetic studies against S. mutans were performed by the broth macrodilution method. S. mutans GS-5 (1×10^6 CFU/ml) and antibacterial agens (find concentrations of 12.5 μM for each peptide, and 2 μM for CHX; their MICs) were incubated in 25% BHI at 37° C. At the time of 0, 1, 2, 4, 8, and 24 h, samples were taken and viable counts determined as follows: The samples were serially diluted (10^−1 to 10^−4) in sterile 10 mM PBS (pH 7.2) and 50 μl aliquots were plated onto TSBY agar. The plates were incubated anaerobically at 37° C. for 48 h, followed by enumerating the CFU. Killing curves were constructed by plotting the log10 CFU per milliliter versus time over 24 h. All assays were done in duplicate on at least two occasions."}, "Erythrocytes": {"test_system": "Erythrocytes", "settings": "determined previously (5), cited from earlier work"}, "C. krusei": {"test_system": "C. krusei", "assay": "Killing assay in clarified saliva", "assay_type": "cell-based", "excerpt": "as §1, §2"}, "C. albicans ATCC96112": {"test_system": "C. albicans ATCC96112", "assay": "Killing assay in clarified saliva", "assay_type": "cell-based", "excerpt": "as §1, §2"}, "C. glabrata ATCC90030": {"test_system": "C. glabrata ATCC90030", "assay": "Killing assay in clarified saliva", "assay_type": "cell-based", "excerpt": "as §1, §2"}, "C. albicans DIS": {"test_system": "C. albicans DIS", "assay": "Killing assay in whole human saliva", "method": "FIG. 1. Candidacidal activity of MUC7 12-mer-L, MUC7 12-mer-D, Hsn5 12-mer, and Magainin-II in whole human saliva (WHS). Each peptide at final concentration of 25, 50, and 100 μM was incubated with C. albicans (DIS isolate at 1×10^5 cells/ml) and 20 μl of clarified or unclarified saliva (SL; hatched bars), saliva containing Protease inhibitor cocktail (PIC) (SL+PIC; filled bars), or saliva containing ethylenediamine tetraacetic acid (EDTA) (SL+EDTA; clear bars) at 37° C. for 1.5 h. At the end of incubation, the samples were diluted 20-fold and aliquots plated on SDA. The colony forming units (CFU) were counted after 24 h of incubation. The loss of C. albicans viability was determined by the equation (1−CFU of the test group/CFU of the control group)×100%. The data represent three individual trials, and in each trial the sample was duplicated; the error bars represent standard deviation.\nFIG. 4. […] Stimulated whole saliva was collected from 5 healthy subjects. Peptides (50 μM) were incubated with C. albicans cells (1×10^5) in the each individual saliva containing PIC (SL+PIC) at 37° C. for 1.5 hr and the loss of the cell viability was determined. Values represent the mean±S.D. (n=5).\nKilling assays in saliva. Unclarified saliva (unstimulated whole saliva) was collected from five healthy individuals during the fasting. Clarified saliva was obtained by passing the unclarified saliva through the 0.2 μm pore size sterile syringe filter (VWR scientific products, West Chester, Pa.). Candidacidal activity assays were performed as described previously (4), except the phosphate buffer was substituted with saliva. […] Saliva without peptides was a blank control. After incubation at 37° C. for 1.5 h, the reactions were diluted 20-fold in PB and aliquots (50 μl, ˜120 cells) of each sample were plated on SDA. The plates were incubated at 37° C. for 1 day aerobically and the number of colony-forming units (CFUs) was counted. Percentage of killing was calculated as (1−amount of viable cells in the test group)/(amount of viable cells in the control group)×100%."}, "[1]": {"test_system": "C. glabrata 65C (azole-resistant clinical isolate)", "assay_type": "cell-based", "settings": "clarified saliva", "excerpt": "as §1, §2"}},
  "note": "Like-named read-outs stand apart in the source and are kept apart here. Where a SMILES comes first, the peptide text is derived from it. Where no end group is shown, it is not given here. [ ]: non-standard residue; d: D form.",
  "data": [
    {"molecule": "CC(C)C[C@H](NC(=O)[C@H](CS)NC(=O)[C@H](CCCCN)NC(=O)[C@H](Cc1ccc(O)cc1)NC(=O)[C@H](CO)NC(=O)[C@H](CCCCN)NC(=O)[C@@H](N)CCCNC(=N)N)C(=O)N[C@@H](Cc1c[nH]cn1)C(=O)N[C@@H](CCCCN)C(=O)N[C@@H](CCCNC(=N)N)C(=O)N[C@@H](CS)C(=O)N[C@@H](CCCNC(=N)N)C(=O)O", "note": "[MUC7 12-mer-L] (H-RKSYKCLHKRCR-OH; N-terminus and C-terminus assumed)", "values": [
      {"measurement": "killing", "setting": "Candida strains", "value": "44-80%"}
    ]},
    {"molecule": "CC(C)C[C@@H](NC(=O)[C@@H](CS)NC(=O)[C@@H](CCCCN)NC(=O)[C@@H](Cc1ccc(O)cc1)NC(=O)[C@@H](CO)NC(=O)[C@@H](CCCCN)NC(=O)[C@H](N)CCCNC(=N)N)C(=O)N[C@H](Cc1c[nH]cn1)C(=O)N[C@H](CCCCN)C(=O)N[C@H](CCCNC(=N)N)C(=O)N[C@H](CS)C(=O)N[C@H](CCCNC(=N)N)C(=O)O", "note": "[MUC7 12-mer-D] (H-[dR][dK][dS][dY][dK][dC][dL][dH][dK][dR][dC][dR]-OH; N-terminus and C-terminus assumed)", "values": [
      {"measurement": "activity (killing)", "setting": "Candida strains", "value": "47-100%"},
      {"measurement": "killing", "setting": "Candida strains", "value": "~100", "unit": "%"}
    ]},
    {"molecule": "GIGKFLHSAKKFGKAFVGEIMNS [Magainin-II]", "values": [
      {"measurement": "reduction of the viable counts of S. mutans", "setting": "S. mutans GS-5", "value": 3, "unit": "log10"},
      {"measurement": "hemolysis", "setting": "Erythrocytes; IGP buffer", "value": 92, "unit": "%"},
      {"measurement": "hemolysis", "setting": "Erythrocytes; PBS", "value": 0, "unit": "%"},
      {"measurement": "percent loss of cell viability", "setting": "C. krusei; PIC+", "value": 100, "unit": "%"},
      {"measurement": "percent loss of cell viability", "setting": "C. krusei; PIC−", "value": 0.00, "unit": "%"},
      {"measurement": "percent loss of cell viability", "setting": "C. albicans ATCC96112; PIC+", "value": 97.90, "unit": "%"},
      {"measurement": "percent loss of cell viability", "setting": "C. albicans ATCC96112; PIC−", "value": 7.17, "unit": "%"},
      {"measurement": "percent loss of cell viability", "setting": "C. glabrata ATCC90030; PIC+", "value": "99.06^± %"},
      {"measurement": "percent loss of cell viability", "setting": "C. glabrata ATCC90030; PIC−", "value": 0.00, "unit": "%"},
      {"measurement": "candidacidal activity (killing)", "setting": "C. albicans DIS; 100 μM, clarified saliva, no PIC/EDTA", "value": 0, "unit": "%"},
      {"measurement": "killing", "setting": "C. albicans DIS; 100 μM, unclarified saliva, no PIC/EDTA", "value": 0, "unit": "%"},
      {"measurement": "percent loss of cell viability", "setting": "C. albicans DIS; clarified saliva, PIC+ (Table 1)", "value": "94.42^± %"},
      {"measurement": "percent loss of cell viability", "setting": "C. albicans DIS; clarified saliva, PIC− (Table 1)", "value": 0.00, "unit": "%"},
      {"measurement": "percent loss of cell viability", "setting": "[1]; PIC+", "value": "99.80^± %"},
      {"measurement": "percent loss of cell viability", "setting": "[1]; PIC−", "value": 0.00, "unit": "%"}
    ]},
    {"molecule": "[H]/N=C(\\N/C(=N/[H])NCCCCCCNC(=N)NC(=N)Nc1ccc(Cl)cc1)Nc1ccc(Cl)cc1", "note": "[Chlorhexidine, Chlorhexidine digluconate]", "values": [
      {"measurement": "reduction of the viable counts of S. mutans", "setting": "S. mutans GS-5", "value": 1, "unit": "log10"}
    ]}
  ]
}
